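Assay format: 96-well plates, 48-hour exposure. Here, GI50 denotes the concentration required for 50% inhibition of growth. TGI: total growth inhibition.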

Assay in all cases: growth of human tumour cells (NCI), 48 h
Test [1] has as its system RXF 393 renal.
In test [2] the test system is 786-0 renal.
For test [3], the system named is MCF7 breast.
The test system of test [4] is NCI/ADR-RES ovarian.
The test system of test [5] is SNB-75 CNS.
Test [6] relates to OVCAR-8 ovarian.
Test [7] relates to HOP-92 NSCLC.
The test system of test [8] is U251 CNS.
Test [9] concerns HCT-116 colon.
In test [10] the test system is NCI-H23 lung.
For test [11], the system named is SR leukemia.

With `C[C@@](Br)(C(=O)O)[C@H](Br)C(=O)O`, the TGI in test [1], in [2], in [3], in test [4], in test [5] and in test [6] was above 100 µM each time. The TGI in test [7], in test [8], in [9] and in test [10] was above 100 µM in each case.

`O=c1ccn([C@@H]2C=C(CO)[C@@H](O)[C@H]2O)c(=O)[nH]1`: the TGI was above 625 µM in test [1]; above 625 µM in [3]; above 625 µM in test [4]; 431 µM in [5]; above 625 µM in test [6]; above 625 µM in test [7]. In addition, the TGI in test [8], in [9] and in test [10] was above 625 µM in each case.

Consider `O=C(/C=C/CC(O)(c1ccccc1)c1ccccc1)Nc1ccccc1Cl`, for which the TGI in [11], in test [5], in [6], in test [7], in test [8] and in [9] was above 100 µM in each case. In addition, in [10], the TGI was above 100 µM.

As for `CCOP(=O)(CC1OC(CO)C(O)C1O)OCC` (stereo not given), the TGI in [1], in test [11], in [2], in [3], in test [5] and in test [7] was above 100 µM each time. The TGI in test [8] was above 100 µM; in test [9], above 100 µM; in [10], above 64.1 µM.

For the molecule `Cc1cccc2c(N)c3cccc(C(=O)NCC[N+](C)(C)[O-])c3nc12`, the TGI in test [1] is 27.5 µM; in test [2], above 100 µM; in test [3], above 100 µM; in test [4], above 100 µM; in test [5], 9.47 µM; in test [6] it was 36.6 µM. Besides, the TGI in [7] was 92.8 µM; in [8], above 100 µM; in test [9] it was above 100 µM; in test [10] it was 16.7 µM.

With `COc1cccc(Nc2nc3c([nH]2)c(=O)n(C)c(=O)n3C)c1`, the TGI in [1], in test [11], in [2], in [3], in [5] and in test [6] was above 10 µM in each case. In addition, the TGI in test [7] and in test [10] was above 10 µM each time.

`CC(C)(C)[Si](C)(C)OC1CCOC1(O)c1ccccn1` (stereo not given): the TGI in test [1], in test [2], in test [3], in test [4], in test [5] and in test [6] was above 100 µM each time. The TGI in test [7], in test [8], in test [9] and in [10] was above 100 µM each time.

With `O=C(O)CCSc1ncnc2nc[nH]c12`, the TGI in test [1] is above 100 µM; in test [2], above 100 µM; in test [3], above 100 µM; in [4], above 100 µM; in test [6], above 100 µM; in [7], 96.3 µM. Further, the TGI in test [8], in test [9] and in [10] was above 100 µM throughout.

Turning to `CN(C)CCN1C(=O)N(CCN(C)C)c2c3cc(O)ccc3nc3c([N+](=O)[O-])ccc1c23`, the TGI amounted to 0.807 µM in test [11]; 19 µM in test [2]; 86.3 µM in [4]; 44.9 µM in test [5]; 36 µM in test [6]; 37.3 µM in test [7]. The TGI in test [8] was found to be 24.4 µM; in test [9] it was 17.1 µM; in test [10], 36.6 µM.

`O=C1c2cc3c(cc2-c2c1c1cc(F)c(F)cc1c(=O)n2C[C@H](O)CO)OCO3`: the GI50 was 0.121 µM in test [1], 0.0396 µM in test [4], 0.0724 µM in [6] and 0.0611 µM in [10]. Further, the TGI in [1] is 0.335 µM; in test [11], above 100 µM; in test [4] it was 0.468 µM; in test [6], above 100 µM; in [10], 0.613 µM.

For the molecule `CCc1ccc(OCc2ccccc2C(=O)Nc2ccc3nc(C)cc(N)c3c2)cc1`, the GI50 in [1] is 1.32 µM; in test [4], 1.75 µM; in test [5], 1.28 µM; in test [6] it was 1.68 µM; in test [7], 1.16 µM. In addition, the TGI in test [1] came to 2.75 µM; in [4] it was 4.2 µM; in test [5], 2.59 µM; in test [6] it was 4.61 µM; in test [7], 2.55 µM.

On to `Cn1c(=O)c2[nH]c(Nc3cccc(Cl)c3)nc2n(C)c1=O`, for which the TGI in test [1] was 8.76 µM; in [2], above 10 µM; in test [3] it was above 10 µM; in test [5] it was above 10 µM; in test [6], above 10 µM; in test [7] it was 6.56 µM. The molecule further registered a TGI in test [10] above 10 µM.

For `CC1=[N+]([O-])C2(CCCC2)N(O)C1(C)C`, the TGI in test [1], in test [2], in test [3], in test [4], in test [6] and in [7] was above 100 µM throughout. Moreover, the TGI in [8], in test [9] and in [10] was above 100 µM each time.

Regarding `O=C(O[C@@H](/C=C/c1ccccc1)P1(=O)N(Cc2ccccc2)[C@@H]2CCCC[C@H]2N1Cc1ccccc1)c1ccccc1`, the TGI in test [11] was above 100 µM; in test [2] it was above 100 µM; in test [3], above 100 µM; in [4], above 100 µM; in test [6], above 100 µM; in [7], 5.52 µM. Also, the values for the TGI in test [8], in [9] and in test [10] were above 100 µM, above 100 µM and 9.22 µM, respectively.

As to `CSc1ncnc2c1cnn2Cc1cn(COCC(O)CO)nn1` (stereo not given), the TGI in test [11], in test [2], in test [3], in [4], in test [6] and in test [7] was above 100 µM each time. Further, the TGI in test [8], in [9] and in [10] was above 100 µM throughout.

On to `COc1ccc(CCn2ccc(=O)c(O)c2C)cc1OC`, for which the TGI in [11] is above 100 µM; in [2], 22.3 µM; in test [3], 61.5 µM; in test [4], 57.9 µM; in test [6], above 100 µM; in test [7] it was 80.5 µM. Further, the TGI in test [8], in [9] and in test [10] was above 100 µM throughout.

`CCc1nc2c([nH]1)C(=O)c1ccccc1C2=O`: the TGI in [1], in test [11], in test [2], in test [5], in test [6] and in test [8] was above 100 µM each time. Further, the TGI in test [9] was 80.6 µM; in [10], above 100 µM.

Consider `CC(=O)OC1COC(N2c3ccccc3[C@@H]3CCc4c([nH]c5ccccc45)[C@@H]32)C(OC(C)=O)C1OC(C)=O` (mixture of isomers), for which the TGI in [11], in test [5], in [7], in [8], in [9] and in test [10] was above 100 µM each time.

As to `Cc1ccc(S(=O)(=O)N2CCc3cc(O)c([N+](=O)[O-])cc32)cc1`, the TGI in [1], in test [2], in test [3], in [4], in test [5] and in test [6] was above 100 µM each time. The TGI in test [8], in test [9] and in test [10] was above 100 µM in each case.

`O/N=C/[C@H]1COC2(CCCCC2)O1`: the TGI in test [2], in [3], in [4], in test [5], in test [6] and in test [7] was above 100 µM throughout. Further, the TGI in test [8], in test [9] and in test [10] was above 100 µM in each case.

`O=C1CN(c2ccccc2)C(=O)C1C(=O)Nc1ccc(Cl)c(Cl)c1` (stereo not given): the TGI in [11] amounted to 5.87 µM; in [5] it was 19.2 µM; in test [7], 14.5 µM; in test [8], 14.9 µM; in test [10] it was 20.2 µM.

In the case of `COC(=O)[C@@H]1[C@H]2CC[C@]3(C)[C@@H](OC(C)=O)CC[C@H]3[C@@H]2CC[C@H]1C1(C)SCCS1`, the TGI was 40.6 µM in test [1]; 62.5 µM in [2]; 83 µM in [3]; 57.1 µM in test [4]; above 100 µM in [5]; 70.6 µM in test [6]. Moreover, the TGI was 47.9 µM in test [7], 54.4 µM in test [8], 46.3 µM in test [9] and 86.7 µM in [10].

The record behind these values is PubChem BioAssay (NCI).
